Measurements as given in PubChem BioAssay AID588495 (Sanford-Burnham Center for Chemical Genomics, 2011).
The source made the active and inactive calls.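 How the source made its calls: active means mean EC50 of 20 µM or lower; inactive means the rest.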

target: Neurotensin receptor type 2 (Homo sapiens) (UniProt O95665); test: NTR2 agonist activity for selectivity, SAR follow-up, selectivity assay for NTR1 agonist project, imaging, NTR2-U2OS cells, beta-arrestin GFP imaging (AID 588495); details: image-based GFP translocation
Sequence (O95665 whole entry, looked up): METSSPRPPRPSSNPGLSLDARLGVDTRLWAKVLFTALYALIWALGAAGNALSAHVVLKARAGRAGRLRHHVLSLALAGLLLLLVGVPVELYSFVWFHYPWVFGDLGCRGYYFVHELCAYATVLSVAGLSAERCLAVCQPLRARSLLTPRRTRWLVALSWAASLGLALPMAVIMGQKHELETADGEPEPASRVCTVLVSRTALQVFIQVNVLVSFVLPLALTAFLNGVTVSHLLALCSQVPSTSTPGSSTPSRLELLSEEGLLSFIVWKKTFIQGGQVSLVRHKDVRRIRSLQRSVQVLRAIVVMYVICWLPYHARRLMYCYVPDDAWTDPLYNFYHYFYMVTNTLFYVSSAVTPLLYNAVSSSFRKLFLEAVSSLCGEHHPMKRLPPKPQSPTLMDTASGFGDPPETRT

SMILES | EC50
COc1cccc(OC)c1-c1cc(C(=O)N[C@@H](CC(C)C)C(=O)O)nn1-c1ccnc2cc(Cl)ccc12 | > 40 µM (inactive)
COc1cc2c3nnc(-c4ccc(C)c(C)c4)c-3cn(Cc3ccccc3)c2cc1OC | > 40 µM (inactive)
Cc1ccc(-n2ncc3c(N4CCN(c5ccc(Cl)c(Cl)c5)CC4)ncnc32)c(C)c1 | > 40 µM (inactive)
Cc1ccc(-n2ncc3c(N4CCN(c5cccc(Cl)c5)CC4)ncnc32)c(C)c1 | > 40 µM (inactive)
Cc1ccc(-n2ncc3c(N4CCN(c5ccccc5Cl)CC4)ncnc32)c(C)c1 | > 40 µM (inactive)
COc1cccc(OC)c1-c1nc(C(=O)O)cn1-c1ccncc1 | > 40 µM (inactive)
COc1ccc(Cn2c(SCc3cc(C)ccc3C)nc3cc(OC)c(OC)cc3c2=N)cc1Cl | > 40 µM (inactive)
COc1cc2c3nnc(-c4ccc(F)cc4)c-3cn(Cc3cccc(C)c3)c2cc1OC | 4.47 µM
COc1cc2nc(C3CCC3)nc(N3CCN(c4ccccc4OC)CC3)c2cc1OC | > 40 µM (inactive)
COc1cccc2c(C(=O)N[C@@H](CC(C)C)C(=O)O)cn(-c3ccnc4cc(Cl)ccc34)c12 | > 40 µM (inactive)
COc1ccc(N2CCN(c3nc(C4CCC4)nc4cc(OC)c(OC)cc34)CC2)cc1 | > 40 µM (inactive)
COc1cc2nc(C)nc(N3CCN(c4ccccc4OC)CC3)c2cc1OC | > 40 µM (inactive)
CC(C)C[C@H](NC(=O)c1cn(-c2ccnc3ccccc23)c(-c2ccccc2)n1)C(=O)O | > 40 µM (inactive)
CCOc1ccc(-c2nnc3c4cc(OC)c(OC)cc4n(Cc4ccc(C)cc4)cc2-3)cc1 | > 40 µM (inactive)
COc1cccc(OC)c1-c1cc(C(=O)N[C@@H](CC(C)C)C(=O)OC(C)(C)C)nn1-c1ccnc2cc(Cl)ccc12 | > 40 µM (inactive)
CN(C)S(=O)(=O)c1ccc(-c2csc(N/N=C/c3cccs3)n2)cc1 | > 40 µM (inactive)
CN(C)S(=O)(=O)c1ccc(-c2csc(N/N=C/c3cccc(Cl)c3)n2)cc1 | > 40 µM (inactive)
Cc1ccc(-n2ncc3c(N4CCN(c5ccccc5)CC4)ncnc32)c(C)c1 | > 40 µM (inactive)
Clc1cccc(-n2ncc3c(N4CCN(c5ccccc5)CC4)ncnc32)c1 | > 40 µM (inactive)
COc1cccc(OC)c1-c1nc(C(=O)N[C@@H](CC(C)C)C(=O)O)cn1-c1ccnc2cc(Cl)ccc12 | > 40 µM (inactive)
Cc1ccc(/C=N/Nc2nc(-c3ccc(S(=O)(=O)N(C)C)cc3)cs2)cc1 | > 40 µM (inactive)
CCN(CC)c1ccc(/C=N/Nc2nc(-c3ccc(S(=O)(=O)N(C)C)cc3)cs2)cc1 | > 40 µM (inactive)
CC(C)C[C@H](NC(=O)c1cn(-c2ccnc3cc(Cl)ccc23)c2ccccc12)C(=O)O | > 40 µM (inactive)
COc1cccc(N2CCN(c3ncnc4c3cnn4-c3ccc(C)cc3C)CC2)c1 | > 40 µM (inactive)
CCOC(=O)c1cc(-c2c(OC)cccc2OC)n(-c2ccnc3cc(Cl)ccc23)n1 | > 40 µM (inactive)
COc1ccc(/C=N/Nc2nc(-c3ccc(S(=O)(=O)N(C)C)cc3)cs2)cc1 | > 40 µM (inactive)
Cc1ccc(-n2ncc3c(N4CCN(c5ccc([N+](=O)[O-])cc5)CC4)ncnc32)c(C)c1 | > 40 µM (inactive)

SMILES | EC50
Cc1ccc(-n2ncc3c(N4CCN(c5ccccc5F)CC4)ncnc32)c(C)c1 | > 40 µM (inactive)
COc1cc2nc(-c3ccccc3)nc(N3CCN(c4ccc(Cl)cc4)CC3)c2cc1OC | > 40 µM (inactive)
CN(C)S(=O)(=O)c1ccc(-c2csc(N/N=C/c3ccco3)n2)cc1 | > 40 µM (inactive)
COc1cc2c3nnc(-c4ccc(C)cc4)c-3cn(Cc3ccc(C)cc3)c2cc1OC | 5.38 µM
CCc1ccc(-c2nnc3c4cc(OC)c(OC)cc4n(Cc4ccccc4)cc2-3)cc1 | > 40 µM (inactive)
COc1ccc(/C=N/Nc2nc(-c3ccc(S(=O)(=O)N(C)C)cc3)cs2)cc1OC | > 40 µM (inactive)
COc1ccc2c(c1)c1nnc(-c3ccc(F)cc3)c-1cn2Cc1ccc(C)cc1 | > 40 µM (inactive)
COc1cc2c3nnc(-c4ccc(F)cc4)c-3cn(Cc3ccccc3)c2cc1OC | 6.02 µM
Clc1ccc(-n2ncc3c(N4CCN(c5ccccc5)CC4)ncnc32)cc1 | > 40 µM (inactive)
CCN(CC)S(=O)(=O)c1ccc(-c2csc(N/N=C/c3ccco3)n2)cc1 | > 40 µM (inactive)
COc1cc2c3nnc(-c4ccc(Cl)cc4)c-3cn(Cc3ccc(F)cc3)c2cc1OC | 7.78 µM
CCCSc1nc2cc(OC)c(OC)cc2c(=N)n1Cc1ccccc1Cl | > 40 µM (inactive)
COc1cc2c3nnc(-c4ccc(C)c(C)c4)c-3cn(Cc3ccc(C)cc3)c2cc1OC | inactive
Cc1ccc(Cn2cc3c(-c4ccc(F)cc4)nnc-3c3ccccc32)cc1 | > 40 µM (inactive)
COc1cccc(OC)c1-c1nc(C(=O)NC2(C(=O)O)C3CC4CC(C3)CC2C4)cn1-c1ccnc2cc(Cl)ccc12 (centres undefined) | > 40 µM (inactive)
COc1cc2nc(-c3ccccc3)nc(N3CCN(c4ccc(F)cc4)CC3)c2cc1OC | > 40 µM (inactive)
Fc1ccc(-n2ncc3c(N4CCN(c5ccccc5)CC4)ncnc32)cc1 | > 40 µM (inactive)
Cc1ccc(-n2ncc3c(N4CCN(c5ccccc5)CC4)ncnc32)cc1 | > 40 µM (inactive)
COc1ccc(Cn2c(SCc3ccccc3)nc3cc(OC)c(OC)cc3c2=N)cc1Cl | > 40 µM (inactive)
Cc1cc(Cl)ccc1-n1ncc2c(N3CCN(c4ccccc4)CC3)ncnc21 | > 40 µM (inactive)
COc1ccc(-c2nnc3c4cc(OC)c(OC)cc4n(Cc4ccc(C)cc4)cc2-3)cc1 | 5.48 µM
COc1ccc(Cn2c(SCc3ccccc3C)nc3cc(OC)c(OC)cc3c2=N)cc1Cl | > 40 µM (inactive)
CCOc1ccc(-c2nnc3c4cc(OC)c(OC)cc4n(Cc4ccccc4)cc2-3)cc1 | > 40 µM (inactive)
COc1cc2c3nnc(-c4ccc(Cl)cc4)c-3cn(Cc3ccc(C)cc3)c2cc1OC | 19.9 µM
CCOc1cc2nc(-c3ccc(OC)c(OC)c3)nc(N3CCN(c4ccccc4)CC3)c2cc1OC | > 40 µM (inactive)
CN(C)S(=O)(=O)c1ccc(-c2csc(N/N=C/c3ccccc3)n2)cc1 | > 40 µM (inactive)
c1ccc(Cn2cc3c(-c4ccccc4)nnc-3c3ccccc32)cc1 | > 40 µM (inactive)
